Each structure is given as a SMILES string.

One data set addresses T1, 5-lipoxygenase (5-LO) (Homo sapiens, UniProt P09917).
T1 construct: endogenous in cells; host or cells: human polymorphonuclear leukocytes from donor blood
T1 sequence (P09917 1-674): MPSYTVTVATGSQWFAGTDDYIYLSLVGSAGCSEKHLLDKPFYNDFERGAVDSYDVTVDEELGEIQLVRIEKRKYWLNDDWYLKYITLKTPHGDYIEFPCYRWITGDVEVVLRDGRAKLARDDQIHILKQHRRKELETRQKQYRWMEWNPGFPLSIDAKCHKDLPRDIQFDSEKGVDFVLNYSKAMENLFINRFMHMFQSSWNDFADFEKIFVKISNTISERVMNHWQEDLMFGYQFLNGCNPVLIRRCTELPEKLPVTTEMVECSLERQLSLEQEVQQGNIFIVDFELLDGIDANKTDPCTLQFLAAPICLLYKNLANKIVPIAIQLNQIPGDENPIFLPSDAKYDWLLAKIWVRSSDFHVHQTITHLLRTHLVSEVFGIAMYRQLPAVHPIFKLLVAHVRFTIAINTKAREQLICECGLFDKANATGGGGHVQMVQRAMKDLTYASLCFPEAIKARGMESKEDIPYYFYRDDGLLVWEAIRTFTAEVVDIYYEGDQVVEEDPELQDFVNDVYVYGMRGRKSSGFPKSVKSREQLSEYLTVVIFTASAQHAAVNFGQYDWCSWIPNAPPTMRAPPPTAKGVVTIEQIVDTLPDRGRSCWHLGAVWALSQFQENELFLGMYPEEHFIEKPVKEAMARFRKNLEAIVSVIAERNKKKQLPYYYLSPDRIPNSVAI
As to the kind of experiment: 5-LO inhibiting activity in human polymorphonuclear leukocytes ([14C]-arachidonic acid, A23187; HPLC of eicosanoids). The format is cell-based. The settings on record: 25 μM concentration; read-out: 5-LO inhibitory activity, approximate inhibition percentage. The procedure: In order to show the 5-LO inhibiting activity of the products of the present invention, a specific test based on human polymorphonuclear leukocytes is chosen.
5-LO Inhibiting Activity in Polymorphonuclear Leukocytes
Blood was obtained from donors which had not received medication during the ten days previous to the extraction. The blood was treated with an anticoagulant (ACD-A) and was centrifuged at 200 g during 12 min at room temperature, separating the supernatant. A solution of Dextran T-500 in physiological serum was added to the pellet, in order to obtain a final concentration of 0.6% w/v, and was allowed to sediment during 40 min. The supernatant was centrifuged at 180 g during 10 min at room temperature. The pellet was resuspended in 5 ml of Hank's buffer, pH 7.4. After the addition of 3 ml of Lymphoprep, the suspension was centrifuged at 450 g during 30 min, and the layers of supernatant were discarded. The next step was the lysis of the erythrocytes present by adding 2 ml of a saline solution. The resulting volume was adjusted to 10 ml with Hank's buffer, pH 7.4. The solution was centrifuged during 10 min at 180 g; the supernatant was discarded and the resulting pellet was resuspended in 1-2 ml of Hank's buffer, pH 7.4. The cellular density was determined using a haemocytometer using the procedure of microcollection Unopette to determine the levels of platelet contamination. Cellular density was adjusted to 2×10^7 cells/ml with Hank's buffer, pH 7.4 and CaCl2 was added to a final concentration of 1.5 mM.
Aliquots (0.5 ml) of the polymorphonuclear leukocytes suspensions, obtained as described in part (a), were incubated during 5 min at 37° C. in the absence (control) and in the presence of three different concentrations of each drug. Afterwards an ethanol solution of [^14 C]-arachidonic acid and A23187 ionophore was added to obtain a final concentration of 10 and 5 μM, respectively. After 5 min of incubation the reaction was stopped by addition of 0.5 ml of ice-cold ethanol. Samples were centrifuged during 2 min at 1500 g, and the supernatants were kept at -80° C. until analyzed. Controls were carried out using the polymorphonuclear leukocyte suspensions aliquots in the presence of the solvent (DMSO) only.
The analysis of the products from the transformation of arachidonic acid through the action of the lipoxygenase (these products being the eicosanoids) was carried out using high pressure liquid chromatography (HPLC), in a reverse phase column (Ultrasphere-ODS, Beckman), injecting 500 μl of the supernatants obtained from the incubations. Elution was carried out using an isocratic mix of mathanol:water:triethylamine:trifluoroacetic acid, 75:25:0.05:0.10, with a flux of 1 ml/min. Detection was carried out with a radioactivity detector with a liquid scintillation cell on-line coupled with the column.
As usually defined, the inhibition is how much of the control response was suppressed. Regarding `CC(C)(C)c1ccc(O)c(I)c1` [Bobel-2, 4-tert-butyl-2-iodophenol], the inhibition at 25 µM was found to be 80%.

For the compound `CC(C)(C)c1cc(I)ccc1O` [Bobel-3, 2-tert-butyl-4-iodophenol], the inhibition at 25 µM worked out at 96%.

Regarding `CC(C)c1cc(I)cc(C(C)C)c1O` [Bobel-4, 2,6-diisopropyl-4-iodophenol], the inhibition at 25 µM was found to be 94%.

`CCc1cc(I)cc(I)c1O` [Bobel-7, 2-ethyl-4,6-diiodophenol]: the inhibition at 25 µM worked out at 74%.

Take `CC(C)c1cc(I)cc(I)c1O` [Bobel-8, 2-isopropyl-4,6-diiodophenol]: the inhibition at 25 µM came out at 95%.

Turning to `CC(C)(C)c1cc(I)cc(I)c1O` [Bobel-9, 2-tert-butyl-4,6-diiodofenol], the inhibition at 25 µM came to 87%.

For the compound `Oc1c(Cl)cc(I)cc1I` [Bobel-10, 2-chloro-4,6-diiodophenol], the inhibition at 25 µM stood at 73%.

Regarding `Oc1c(Br)cc(I)cc1I` [Bobel-11, 2-bromo-4,6-diiodophenol], the inhibition at 25 µM was determined as 88%.

`Oc1c(I)cc(I)cc1C(F)(F)F` [Bobel-12, 2-trifluoromethyl-4,6-diiodophenol]: the inhibition at 25 µM is 97%.

`CC(C)c1cc(I)c(O)c(I)c1` [Bobel-14, 4-isopropyl-2,6-diiodophenol]: the inhibition at 25 µM was 85%.

With `CC(C)(C)c1cc(I)c(O)c(I)c1` [Bobel-15, 4-tert-butyl-2,6-diiodophenol], the inhibition at 25 µM turned out to be 85%.

As for `Oc1c(I)cc(-c2ccccc2)cc1I` [Bobel-16, 4-phenyl-2,6-diiodophenol], the inhibition at 25 µM stood at 97%.

Take `Oc1c(I)cc(Cl)cc1I` [Bobel-18, 4-chloro-2,6-diiodophenol]: the inhibition at 25 µM worked out at 80%.

With `Oc1c(I)cc(C(F)(F)F)cc1I` [Bobel-20, 4-trifluoromethyl-2,6-diiodophenol], the inhibition at 25 µM turned out to be 100%.

Turning to `Cc1c(I)cc(I)c(O)c1I` [Bobel-25, 3-methyl-2,4-6-triiodophenol], the inhibition at 25 µM was determined as 97%.

As to `CCc1c(I)cc(I)c(O)c1I` [Bobel-26, 3-ethyl-2,4,6-triiodophenol], the inhibition at 25 µM was determined as 94%.

Turning to `Oc1c(I)cc(I)c(F)c1I` [Bobel-29, 3-fluoro-2,4,6-triiodophenol], the inhibition at 25 µM came to 100%.

For `Oc1c(I)cc(I)c(Cl)c1I` [Bobel-30, 3-chloro-2,4,6-triiodophenol], the inhibition at 25 µM was found to be 90%.

The same data set, now with this note: LTB4, 6-trans-LTB4, 5-HETE, 20-OH-LTB4; FIGS. 3 and 4.
`CC(C(=O)O)c1ccc2oc(-c3ccc(Cl)cc3)nc2c1` (centres unmarked) [benoxaprofen, reference compound]: the “concentration of biosynthesis products versus concentration of the drug” value is listed as “decreased in approximately linear with the concentration of the drug used”.

On to `CC(=O)N1CCN(c2ccc(OCC3COC(Cn4ccnc4)(c4ccc(Cl)cc4Cl)O3)cc2)CC1` (centres unmarked) [ketaconozale, ketoconazole, reference compound], for which the “concentration of biosynthesis products versus concentration of the drug” value was “decreased in approximately linear with the concentration of the drug used”.

Still in this data set, the particulars now being: human polymorphonuclear leukocytes; AA 10 μM, A23187 5 μM; average of five different peaks; read-out: IC50 (concentration of the drug which inhibits 50% of the AA converted by 5-LO).
On to `CC(C(=O)O)c1ccc2oc(-c3ccc(Cl)cc3)nc2c1` (centres unmarked) [benoxaprofen, reference compound], for which the IC50 is 92 µM.

Take `CC(=O)N1CCN(c2ccc(OCC3COC(Cn4ccnc4)(c4ccc(Cl)cc4Cl)O3)cc2)CC1` (centres unmarked) [ketaconozale, ketoconazole, reference compound]: the IC50 came out at 102 µM.

Staying with this data set, now noted: in words.
On to `Oc1ccccc1I` [Bobel 2-iodophenol, 2-iodophenol, reference compound], for which the “5-LO inhibiting activity of products of monoiodination of phenol (control tests)” value (“5-LO inhibiting activity” below) is reported as “negligible activity”.

On to `Oc1cccc(I)c1` [Bobel 3-iodophenol, 3-iodophenol, reference compound], for which the “5-LO inhibiting activity” value is recorded as “negligible activity”.

Take `Oc1ccc(I)cc1` [Bobel 4-iodophenol, 4-iodophenol, reference compound]: the “5-LO inhibiting activity” value is “negligible activity”.

For the next data set, the system named is dioxygenases.
Test: not given
The settings on record: background statement; cited from earlier work.
Turning to `CC(Cc1ccc(O)c(O)c1)C(C)Cc1ccc(O)c(O)c1` (centres unmarked) [NDGA, nordihydroguayaretic acid], the inhibition of dioxygenases entry is recorded as “inhibitor of all dioxygenases”.

Test system in the next data set: not given
Test: not given
The settings on record: background statement; cited from earlier work.
For the compound `CC(C(=O)O)c1ccc2oc(-c3ccc(Cl)cc3)nc2c1` (centres unmarked) [benoxaprofen, reference compound], the toxicity entry was “much too toxic”.

`COc1c(OC)c(OC(C)=O)c2cc(Cl)ccc2c1OC(C)=O` [lonapalene]: the toxicity entry was “much too toxic”.

For another data set, the system named is 5-LO.
Test: not given
The settings on record: background statement; cited from earlier work.
As for `CC(Cc1ccc(O)c(O)c1)C(C)Cc1ccc(O)c(O)c1` (centres unmarked) [NDGA, nordihydroguayaretic acid], the 5-LO inhibition entry is on record as “potent 5-LO inhibitor”.

The record behind these values is patent publication US5985937A, “Use of 2,4-distributed phenol derivatives as 5-lipoxygenase inhibitors” (priority 1994, dated 1999).
